Laboratory results from patent publication US9833497B2, “Human originated EGF domain proteins and use of the same” (CHENGDU SOURCEBIO LIMITED-LIABILITY COMPANY, priority 2013, dated 2017).

Tests used:
Type in all cases: cell-based
Proteus vulgaris = experiment: MIC against Gram-negative bacteria: Proteus vulgaris; conditions: for MIC: P. vulgaris
Summary of the method: (§1)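 Growth inhibition by human EGF domain proteins was scored in LB liquid culture seeded at 5×10^5 CFU/mL. Protein was applied as a two-fold dilution series in triplicate, with shaking incubation at 37° C; MIC is the lowest concentration giving no growth.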

Klebsiella pneumonia = experiment: MIC against Gram-negative bacteria: Klebsiella pneumonia; conditions: for MIC: K. pneumonia
Summary of the method: as §1

Pseudomonas aeruginosa = experiment: MIC against Gram-negative bacteria: Pseudomonas aeruginosa; conditions: for MIC: P. aeruginosa
Summary of the method: as §1

Enterobacter cloacae = experiment: MIC against Gram-negative bacteria: Enterobacter cloacae; conditions: for MIC: E. cloacae
Summary of the method: as §1

E. coli BL21 = experiment: MIC against Gram-negative bacteria: E. coli BL21
Summary of the method: as §1

E. coli DH5α = experiment: Antibacterial activity: MIC and growth curve against E. coli DH5α in 96-well plate; conditions: minimal inhibitory concentration against E. coli DH5α; 96-well plate, 5×10^5 CFU/mL, 37° C., judged after 8 h
Summary of the method: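 Log-phase bacteria (OD600 ~0.5) resuspended in LB at 5×10^5 CFU/mL, exposed to recombinant protein at 50, 25, 12.5 μg/mL final in triplicate, 37 °C shaking at 175 rpm. OD600 read every 30 min; MIC is lowest concentration showing no growth.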

Moraxella catarrhalis = experiment: MIC against Gram-negative bacteria: Moraxella catarrhalis; conditions: for MIC: M. catarrhalis
Summary of the method: as §1

Aeromonas hydrophila = experiment: MIC against Gram-negative bacteria: Aeromonas hydrophila; conditions: for MIC: A. hydrophila
Summary of the method: as §1

Citrobacter diversus = experiment: MIC against Gram-negative bacteria: Citrobacter diversus; conditions: for MIC: C. diversus
Summary of the method: as §1

Serratia marcescens = experiment: MIC against Gram-negative bacteria: Serratia marcescens; conditions: for MIC: S. marcescens
Summary of the method: as §1

Proteus mirabilis = experiment: MIC against Gram-negative bacteria: Proteus mirabilis; conditions: for MIC: P. mirabilis
Summary of the method: as §1

[1] = E. coli BL21, 10 h cultivation at 37° C.
[2] = Proteus vulgaris, 96-well plate, 5×10^5 CFU/mL, 37° C., 10 h
[3] = Klebsiella pneumonia, 96-well plate, 5×10^5 CFU/mL, 37° C., 10 h
[4] = Pseudomonas aeruginosa, 96-well plate, 5×10^5 CFU/mL, 37° C., 10 h
[5] = Enterobacter cloacae, 96-well plate, 5×10^5 CFU/mL, 37° C., 10 h
[6] = E. coli BL21, 96-well plate, 5×10^5 CFU/mL, 37° C., 10 h
[7] = Moraxella catarrhalis, 96-well plate, 5×10^5 CFU/mL, 37° C., 10 h
[8] = Aeromonas hydrophila, 96-well plate, 5×10^5 CFU/mL, 37° C., 10 h
[9] = Citrobacter diversus, 96-well plate, 5×10^5 CFU/mL, 37° C., 10 h
[10] = Serratia marcescens, 96-well plate, 5×10^5 CFU/mL, 37° C., 10 h
[11] = Proteus mirabilis, 96-well plate, 5×10^5 CFU/mL, 37° C., 10 h
[12] = 96-well plate, 5×10^5 CFU/mL, 37° C., 10 h

Substance: PRT909 (LVDECSPSPCQNGATCTDYLGGYSCKCVAGYHGVNCS; listed as Homo sapiens)
- MIC (Proteus vulgaris; 10 h cultivation at 37° C.): 50 µg/mL
- MIC (Klebsiella pneumonia; 10 h cultivation at 37° C.): 50 µg/mL
- MIC (Pseudomonas aeruginosa; 10 h cultivation at 37° C.): 12.5 µg/mL
- MIC (Enterobacter cloacae; 10 h cultivation at 37° C.): 25 µg/mL
- MIC (E. coli BL21; [1]): 25 µg/mL
- MIC (E. coli DH5α): 50 µg/mL
- MIC (Moraxella catarrhalis; 10 h cultivation at 37° C.): 25 µg/mL
- MIC (Aeromonas hydrophila; 10 h cultivation at 37° C.): 12.5 µg/mL
- MIC (Citrobacter diversus; 10 h cultivation at 37° C.): 50 µg/mL
- MIC (Serratia marcescens; 10 h cultivation at 37° C.): 12.5 µg/mL
- MIC (Proteus mirabilis; 10 h cultivation at 37° C.): 12.5 µg/mL

Substance: PRT1033 (LYVPCAPSPCVNGGTCRQTGDFTFECNCLPETVRRGTE; listed as Homo sapiens)
- MIC (Proteus vulgaris; 10 h cultivation at 37° C.): 25 µg/mL
- MIC (Klebsiella pneumonia; 10 h cultivation at 37° C.): 25 µg/mL
- MIC (Pseudomonas aeruginosa; 10 h cultivation at 37° C.): 50 µg/mL
- MIC (Enterobacter cloacae; 10 h cultivation at 37° C.): 50 µg/mL
- MIC (E. coli BL21; [1]): 12.5 µg/mL
- MIC (E. coli DH5α): 50 µg/mL
- MIC (Moraxella catarrhalis; 10 h cultivation at 37° C.): 100 µg/mL
- MIC (Aeromonas hydrophila; 10 h cultivation at 37° C.): 12.5 µg/mL
- MIC (Citrobacter diversus; 10 h cultivation at 37° C.): 50 µg/mL
- MIC (Serratia marcescens; 10 h cultivation at 37° C.): 50 µg/mL
- MIC (Proteus mirabilis; 10 h cultivation at 37° C.): 50 µg/mL

Substance: PRT1318 (DCTQCPGGFSNPCYGKGNCSDGIQGNGACLCFPDYKGIACH; listed as Homo sapiens)
- MIC against P. vulgaris (Proteus vulgaris; [2]): 50 µg/mL
- MIC against K. pneumonia (Klebsiella pneumonia; [3]): 50 µg/mL
- MIC against P. aeruginosa (Pseudomonas aeruginosa; [4]): 25 µg/mL
- MIC against E. cloacae (Enterobacter cloacae; [5]): 25 µg/mL
- MIC against E. coli BL21 (E. coli BL21; [6]): 12.5 µg/mL
- MIC (E. coli DH5α): 25 µg/mL
- MIC against M. catarrhalis (Moraxella catarrhalis; [7]): 12.5 µg/mL
- MIC against A. hydrophila (Aeromonas hydrophila; [8]): 12.5 µg/mL
- MIC against C. diversus (Citrobacter diversus; [9]): 50 µg/mL
- MIC against S. marcescens (Serratia marcescens; [10]): 25 µg/mL
- MIC against P. mirabilis (Proteus mirabilis; [11]): 25 µg/mL

Substance: PRT1425 (DIDECENGGFCSGVCHNLPGTFECICGPDSALARHIGTDCD; listed as Homo sapiens)
- MIC against P. vulgaris (Proteus vulgaris; Proteus vulgaris, 5×10^5 CFU/mL, 10 h cultivation at 37° C.): 12.5 µg/mL
- MIC against K. pneumonia (Klebsiella pneumonia; Klebsiella pneumonia, 5×10^5 CFU/mL, 10 h cultivation at 37° C.): 50 µg/mL
- MIC against P. aeruginosa (Pseudomonas aeruginosa; Pseudomonas aeruginosa, 5×10^5 CFU/mL, 10 h cultivation at 37° C.): 12.5 µg/mL
- MIC against E. cloacae (Enterobacter cloacae; Enterobacter cloacae, 5×10^5 CFU/mL, 10 h cultivation at 37° C.): 25 µg/mL
- MIC against E. coli BL21 (E. coli BL21; E. coli BL21, 5×10^5 CFU/mL, 10 h cultivation at 37° C.): 50 µg/mL
- MIC (E. coli DH5α): 12.5 µg/mL
- MIC against M. catarrhalis (Moraxella catarrhalis; Moraxella catarrhalis, 5×10^5 CFU/mL, 10 h cultivation at 37° C.): 12.5 µg/mL
- MIC against A. hydrophila (Aeromonas hydrophila; Aeromonas hydrophila, 5×10^5 CFU/mL, 10 h cultivation at 37° C.): 12.5 µg/mL
- MIC against C. diversus (Citrobacter diversus; Citrobacter diversus, 5×10^5 CFU/mL, 10 h cultivation at 37° C.): 50 µg/mL
- MIC against S. marcescens (Serratia marcescens; Serratia marcescens, 5×10^5 CFU/mL, 10 h cultivation at 37° C.): 12.5 µg/mL
- MIC against P. mirabilis (Proteus mirabilis; Proteus mirabilis, 5×10^5 CFU/mL, 10 h cultivation at 37° C.): 12.5 µg/mL

Substance: PRT626 (CDCQSAGSLHLQCDDTGTCACKPTVTGWKCDRCLPGFHSLSEGGCRP; listed as Homo sapiens)
- MIC P. vulgaris (Proteus vulgaris; [12]): 50 µg/mL
- MIC K. pneumonia (Klebsiella pneumonia; [12]): 12.5 µg/mL
- MIC P. aeruginosa (Pseudomonas aeruginosa; [12]): 25 µg/mL
- MIC E. cloacae (Enterobacter cloacae; [12]): 25 µg/mL
- MIC E. coli BL21 (E. coli BL21; [12]): 50 µg/mL
- MIC (E. coli DH5α): 25 µg/mL
- MIC M. catarrhalis (Moraxella catarrhalis; [12]): 12.5 µg/mL
- MIC A. hydrophila (Aeromonas hydrophila; [12]): 50 µg/mL
- MIC C. diversus (Citrobacter diversus; [12]): 25 µg/mL
- MIC S. marcescens (Serratia marcescens; [12]): 25 µg/mL
- MIC P. mirabilis (Proteus mirabilis; [12]): 25 µg/mL

Substance: PRT41 (CDRPCVNGGRCNPGTGQCVCPAGWVGEQC; listed as Homo sapiens)
- MIC (μg/mL) P. vulgaris (Proteus vulgaris; [2]): 12.5 µg/mL
- MIC (μg/mL) K. pneumonia (Klebsiella pneumonia; [3]): 12.5 µg/mL
- MIC (μg/mL) P. aeruginosa (Pseudomonas aeruginosa; [4]): 25 µg/mL
- MIC (μg/mL) E. cloacae (Enterobacter cloacae; [5]): 25 µg/mL
- MIC (μg/mL) E. coli BL21 (E. coli BL21; [6]): 12.5 µg/mL
- MIC (E. coli DH5α): 25 µg/mL
- MIC (μg/mL) M. catarrhalis (Moraxella catarrhalis; [7]): 12.5 µg/mL
- MIC (μg/mL) A. hydrophila (Aeromonas hydrophila; [8]): 12.5 µg/mL
- MIC (μg/mL) C. diversus (Citrobacter diversus; [9]): 25 µg/mL
- MIC (μg/mL) S. marcescens (Serratia marcescens; [10]): 50 µg/mL
- MIC (μg/mL) P. mirabilis (Proteus mirabilis; [11]): 25 µg/mL
